Assay results: patent publication US8871443B2, “Schizophrenia-related isoform of KCNH2 and development of antipsychotic drugs” (The United States of America, as represented by the …, priority 2007, dated 2014)

How the values were obtained:
KCNH2-1A mRNA expression = experiment: KCNH2-1A expression in frontal cortex of neuroleptic treated rats; conditions: for effect on KCNH2-1A expression within the frontal cortex: one of three doses for 28 days, vs vehicle; for change in KCNH2-1A expression, frontal cortex: 28 days
Procedure: (§1) Referring to FIG. 19, 8-10 rats per treatment group were treated with one of three doses of either Haloperidol (0.08, 0.6, and 1 mg/kg) or Clozapine (0.5, 5, 10 mg/kg) for 28 days (as compared to rats treated with vehicle alone). Frontal cortex expression levels of NOS3 (ABI assay Rn02132634_sl) and KCNH2-1A (ABI assay Rn01442523_ml) were normalized to the geometric mean of two housekeeping genes (GAPDH, B2M). Effects of antipsychotic treatment on gene expression were tested by linear regression with gene expression as the dependent variable. Differences between vehicle alone and the two therapeutic range equivalent dosages (0.08 and 0.6 mg/kg/day of Haloperidol; 0.5 and 5 mg/kg/day of Clozapine) were tested using post-hoc LSD.

NOS3 mRNA expression = experiment: NOS3 expression in frontal cortex of neuroleptic treated rats; assay type: in vivo, rat; conditions: one of three doses for 28 days, vs vehicle
Procedure: as §1

[1] = test system: patients with schizophrenia; experiment: CATIE trial, time to discontinuation of olanzapine (Cox proportional hazard model); assay type: in vivo, human; conditions: for hazard ratio (HR) of discontinuation of medication: n=89; for Time to discontinuation, Est (COX proportional hazard model) / Time to discontinuation, HR (hazard ratio): n = 89, event = 46
Source text: The second cohort consisted of patients randomly assigned to five medications during the Phase 1/1A (first drug assigned) of the Clinical Antipsychotic Trials of Intervention Effectiveness (CATIE), (Stroup T S, McEvoy J P, Swartz M S, et al. The National Institute of Mental Health Clinical Antipsychotic Trials of Intervention Effectiveness (CATIE) project: Schizophrenia trial design and protocol development. Schizophr. Bull. 2003; 29(1):15-31) a clinical trial to compare the effectiveness of antipsychotic drugs. Patients were initially randomly assigned to receive olanzapine, perphenazine, quetiapine, risperidone or ziprasidone under double-blind conditions and followed up for 18 months or until treatment was discontinued or switched to another antipsychotic (i.e. Phase 2). Eligible patients were 18 to 65 years of age, had received a diagnosis of schizophrenia based on DSM-IV criteria 26 and were able to take oral antipsychotic medication. The primary outcome measure in the CATIE sample was time to medication discontinuation, most often due to lack of efficacy or side-effects. PANSS ratings were included as a secondary efficacy outcome. Details on the CATIE trial methods have been previously published. (Stroup T S, McEvoy J P, Swartz M S, et al. The National Institute of Mental Health Clinical Antipsychotic Trials of Intervention Effectiveness (CATIE) project: Schizophrenia trial design and protocol development. Schizophr. Bull. 2003; 29(1):15-31.) For consistency with the NIMH inpatient study and to reduce effects of genetic heterogeneity, only Caucasian subjects were included for analysis. Because of the outpatient and parallel design of this study, information about compliance based on drug clearance is an important factor determining symptom change during the CATIE trial. (Bigos K L, Pollock B G, Coley K C, et al. Sex, race, and smoking impact olanzapine exposure. Journal of Clinical Pharmacology. 2008; 48(2):157-165; Bigos K L, Bies R R, Pollock B G, Lowy J J, Zhang F, Weinberger D R. Genetic Variation in CYP3A43 Explains Racial Difference in Olanzapine Clearance. Molecular Psychiatry. In Press.) Thus, we only analyzed treatment response from subjects on whom we had drug clearance data (N=364) (Bigos K L, Pollock B G, Coley K C, et al. Sex, race, and smoking impact olanzapine exposure. Journal of Clinical Pharmacology. 2008; 48(2):157-165). Drug clearance was estimated using population pharmacokinetic modeling of drug concentrations and used in the statistical analysis of treatment response as previously described. (Bigos K L, Pollock B G, Coley K C, et al. Sex, race, and smoking impact olanzapine exposure. Journal of Clinical Pharmacology. 2008; 48(2):157-165. Bigos K L, Bies R R, Pollock B G, Lowy J J, Zhang F, Weinberger D R. Genetic Variation in CYP3A43 Explains Racial Difference in Olanzapine Clearance. Molecular Psychiatry. In Press.)
We genotyped three SNPs rs3900779, rs748693 and rs1036145 in KCNH2 which have been associated with schizophrenia and with expression of the novel KCNH2 3.1 isoform in human post-mortem brain. (Huffaker S J, Chen J S, Nicodemus K K, et al. A primate-specific, brain isoform of KCNH2 affects cortical physiology, cognition, neuronal repolarization and risk of schizophrenia. Nat. Med. May 2009; 15(5):509-518.) Genotypes were determined using the 5′-exonuclease fluorescent Taqman assay (assay by design or assay on demand) and the allelic discrimination was read on an ABI 7900 SDS system (Applied Biosystems, Foster City, Calif.). (Livak K J. Allelic discrimination using fluorogenic probes and the 5′ nuclease assay. Genet. Anal.-Biomol. Eng. February 1999; 14(5-6):143-149.)
We also attempted to examine time to discontinuation of medication, which was a primary outcome measure of the CATIE trial. […]

[2] = rs748693, second genotype line (genotype not given) vs non-risk allele homozygote
[3] = rs748693 GG genotype vs non-risk allele homozygote
[4] = rs1036145, second genotype line (genotype not given) vs non-risk allele homozygote
[5] = rs1036145 TT genotype vs non-risk allele homozygote
[6] = rs3900779, second genotype line (genotype not given) vs reference
[7] = rs3900779, third genotype line (genotype not given) vs reference

| SMILES | effect on KCNH2-1A expression within the frontal cortex (KCNH2-1A mRNA expression) | change in KCNH2-1A expression, frontal cortex (KCNH2-1A mRNA expression; 0.08 mg/kg/day, did not reach significance (p=0.082)) | change in KCNH2-1A expression, frontal cortex (KCNH2-1A mRNA expression; 0.6 mg/kg/day, did not reach significance (p=0.119)) | effect on NOS3 expression within the frontal cortex (NOS3 mRNA expression) | times less likely to have discontinued medication ([1]; GG genotype at rs748693 vs non-risk allele homozygote) [times] | hazard ratio (HR) of discontinuation of medication ([1]; GG genotype at rs748693 vs non-risk allele homozygote, p=0.031) | times less likely to have discontinued medication ([1]; TT genotype at rs1036145 vs non-risk allele homozygote) [times] | hazard ratio (HR) of discontinuation of medication ([1]; TT genotype at rs1036145 vs non-risk allele homozygote, p=0.033) | Time to discontinuation, Est (COX proportional hazard model) [1, 2] | Time to discontinuation, HR (hazard ratio) [1, 2] | Time to discontinuation, Est (COX proportional hazard model) [1, 3] | Time to discontinuation, HR (hazard ratio) [1, 3] | Time to discontinuation, Est (COX proportional hazard model) [1, 4] | Time to discontinuation, HR (hazard ratio) [1, 4] | Time to discontinuation, Est (COX proportional hazard model) [1, 5] | Time to discontinuation, HR (hazard ratio) [1, 5] | Time to discontinuation, Est (COX proportional hazard model) [1, 6] | Time to discontinuation, HR (hazard ratio) [1, 6] | Time to discontinuation, Est (COX proportional hazard model) [1, 7] | Time to discontinuation, HR (hazard ratio) [1, 7] |
| --- | --- | --- | --- | --- | --- | --- | --- | --- | --- | --- | --- | --- | --- | --- | --- | --- | --- | --- | --- | --- |
| CN1CCN(C2=Nc3cc(Cl)ccc3Nc3ccccc32)CC1 [clozapine] | Neither clozapine nor haloperidol showed significant effects |  |  |  |  |  |  |  |  |  |  |  |  |  |  |  |  |  |  |  |
| O=C(CCCN1CCC(O)(c2ccc(Cl)cc2)CC1)c1ccc(F)cc1 [haloperidol] | Neither clozapine nor haloperidol showed significant effects | slight decrease | slight decrease | Neither clozapine nor haloperidol showed significant effects |  |  |  |  |  |  |  |  |  |  |  |  |  |  |  |  |
| Cc1cc2c(s1)Nc1ccccc1N=C2N1CCN(C)CC1 [olanzapine] |  |  |  |  | ~4 | 0.254 | ~5 | 0.208 | −0.119 | 0.888 | −1.371 | 0.254 | −0.06 | 0.942 | −1.569 | 0.208 | −0.431 | 0.65 | −0.688 | 0.503 |
